From PubChem BioAssay AID2060626 (Molecular Pharmacology Branch, DTP, NCI, 2025)
pIC50: −log10 of the molar value.

System: 168753-222-R-J1-PDC complex spheroid viability
Experiment: Anticancer human tumor 168753-222-R-J1-PDC patient-derived bladder carcinoma cell line growth inhibition [CLK]
Settings: for pIC50: curve of first compound; for viability, T/C: stronger effect = lower value
Text: A high-throughput screen of multi-cell type tumor spheroids was designed to identify active combinations of […] and targeted small molecules. Complex spheroids include a stromal component modeled by human endothelial cells (HUVEC) and fibroblasts modeled by human mesenchymal stem cells (MSCs). The concentration ranges selected for each drug and investigational agent were based upon clinically achievable concentrations if the clinical Cmax of the agent was known.
Compounds. The drugs and investigational agents: cirtuvivint (SM08502; NSC835563), CC-671 (NSC850746), vemurafenib (NSC761431), tapotoclax (NSC804041), sotorasib (NSC818433), adagrasib (NSC831453), MRTX-1133 (NSC836407), BAY2416964 (NSC825713), copanlisib (NSC816437), inavolisib (NSC800729), abemaciclib (NSC768073), osimertinib (NSC779217), entinostat (NSC756642), eltanexor (KPT-8602, NSC794443), venetoclax (NSC766270), ceralasertib (NSC777638), bortezomib (NSC756655), olaparib (NSC753686), talazoparib (NSC767125), alisertib (NSC759677), peposertib (NSC802822), gemcitabine (NSC613327), 5-fluorouracil (NSC19893), SN-38 (NSC673596), oxaliplatin (NSC266046), paclitaxel (NSC125973), and doxorubicin (NSC123127), were obtained from the National Cancer Institute (NCI) Developmental Therapeutics Program Chemical Repository. The FDA-approved anticancer drug set is available from the Developmental Therapeutics Program at https://dtp.cancer.gov/organization/dscb/obtaining/available plates.htm. […] The stock solutions were prepared in dimethyl sulfoxide (DMSO, Sigma-Aldrich, St. Louis, MO, cat. D2650), except for the platinum complexes which were prepared in saline (Quality Biological, Gaithersburg, MD, cat. 114-055-101), at 800-fold the tested concentration and stored at -70 degrees C prior to their use. All drugs and investigational agents were tested over a range starting from a high concentration at or near the clinical Cmax and decreasing in half-log increments. If the clinical Cmax for an agent had not been determined, the highest concentration tested was 10 microM.
Cell Culture. All cells were maintained in an incubator at 37 degrees C and 5% CO2 with 95% humidity. The PDC lines were cultured according to standard operating procedures established by the NCI PDMR. Briefly, all PDCs were thawed and cultured in Matrigel-coated flasks prepared with a working solution of 1X Ham's F-12 nutrient mix, without supplementation (Invitrogen, Waltham, MA, cat. 11765054), 100 U/mL penicillin-streptomycin (Invitrogen, cat. 15140122), and 2.5% Matrigel (Corning Inc., Corning, NY, cat. 354248) for the first three passages. The 947758-054-R-J2-PDC line was cultured in 6B/Colon 1A media, which includes advanced DMEM/F-12 (Thermo Fisher Scientific, cat. 12634028), 10 mM HEPES (Thermo Fisher Scientific, cat. 15630080), 1X GlutaMAX supplement (Thermo Fisher Scientific, cat. 35050061), 0.1 mg/mL primocin (InvivoGen, cat. ant-pm-2), 10% defined fetal bovine serum, heat inactivated (HyClone Laboratories Inc., cat. SH30070.03HI), 1.25 mM N-Acetyl-L-cysteine (Sigma-Aldrich, cat. A9165), 10 mM nicotinamide (Sigma-Aldrich, cat. N0636), 1X B-27 supplement (Thermo Fisher Scientific, cat. 17504044), 1X N-2 supplement (Thermo Fisher Scientific, cat. 17502048), and 10 microM Y-27632 dihydrochloride (Tocris Bioscience, cat. 1254). The 876862-298-R-J1-PDC was cultured in 6E media, which includes all 6B/Colon 1A media components plus 50% L-WRN conditioned media (ATCC, cat. CRL-3276), 50 ng/mL recombinant human EGF recombinant protein (hEGF; Thermo Fisher Scientific, cat. PHG0311), 10 ng/mL recombinant human fibroblast growth factor 10 (hGFG-10; PeproTech, cat. 100-26), 1 ng/mL recombinant human fibroblast growth factor 2 (hFGF-2; PeproTech, cat. 100-18B), and 1 µM prostaglandin E2 (PGE2; Tocris, cat. 2296). The 227483-062-R1-J1-PDC line was cultured in Panc media, containing all 6E components except hFGF-2, with the addition of 500 nM SB-431542 (Selleckchem, cat. S1067) and 10 nM gastrin (Tocris, cat. 3006). […]

[1] = second compound 0.0316 µM, first compound 0.0316 µM
[2] = second compound 0.0316 µM, first compound 0.1 µM
[3] = second compound 0.0316 µM, first compound 0.316 µM
[4] = second compound 0.0316 µM, first compound 1 µM
[5] = second compound 0.1 µM, first compound 0.0316 µM
[6] = second compound 0.1 µM, first compound 0.1 µM
[7] = second compound 0.1 µM, first compound 0.316 µM
[8] = second compound 0.1 µM, first compound 1 µM
[9] = second compound 0.316 µM, first compound 0.0316 µM
[10] = second compound 0.316 µM, first compound 0.1 µM
[11] = second compound 0.316 µM, first compound 0.316 µM
[12] = second compound 0.316 µM, first compound 1 µM
[13] = second compound 1 µM, first compound 0.0316 µM
[14] = second compound 1 µM, first compound 0.1 µM
[15] = second compound 1 µM, first compound 0.316 µM
[16] = second compound 1 µM, first compound 1 µM
[17] = second compound 3.16 µM, first compound 0.0316 µM
[18] = second compound 3.16 µM, first compound 0.1 µM
[19] = second compound 3.16 µM, first compound 0.316 µM
[20] = second compound 3.16 µM, first compound 1 µM
[21] = second compound 10 µM, first compound 0.0316 µM
[22] = second compound 10 µM, first compound 0.1 µM
[23] = second compound 10 µM, first compound 0.316 µM
[24] = second compound 10 µM, first compound 1 µM
[25] = second compound 0.0316 µM, first compound 0.00316 µM
[26] = second compound 0.0316 µM, first compound 0.01 µM
[27] = second compound 0.1 µM, first compound 0.00316 µM
[28] = second compound 0.1 µM, first compound 0.01 µM
[29] = second compound 0.316 µM, first compound 0.00316 µM
[30] = second compound 0.316 µM, first compound 0.01 µM
[31] = second compound 1 µM, first compound 0.00316 µM
[32] = second compound 1 µM, first compound 0.01 µM
[33] = second compound 3.16 µM, first compound 0.00316 µM
[34] = second compound 3.16 µM, first compound 0.01 µM
[35] = second compound 10 µM, first compound 0.00316 µM
[36] = second compound 10 µM, first compound 0.01 µM
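Note: viability measured after seven days of drug exposure.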
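Throughout, for viability, T/C: luminescence signal used as surrogate for viable cell amount; 100% = DMSO vehicle control wells.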

Structure (SMILES): CC(Nc1ccc2c(c1)OCCn1cc(N3C(=O)OCC3C(F)F)nc1-2)C(N)=O (stereo unspecified) + CN1CCN(c2cc(C(=O)Nc3cc4cc(-c5cnn(C)c5)ccc4cn3)ccn2)CC1
- pIC50 (second compound 0.0316 µM): 7.18
- pIC50 (second compound 0.1 µM): > 7.50
- pIC50 (second compound 0.316 µM): > 7.50
- pIC50 (second compound 1 µM): > 7.50
- pIC50 (second compound 3.16 µM): > 7.50
- pIC50 (second compound 10 µM): > 7.50
- viability, T/C [1]: 72.8%
- viability, T/C [2]: 37%
- viability, T/C [3]: 15%
- viability, T/C [4]: 12.5%
- viability, T/C (second compound 0.0316 µM, first compound 3.16 µM): 9.81%
- viability, T/C (second compound 0.0316 µM, first compound 10 µM): 9.9%
- viability, T/C [5]: 41.8%
- viability, T/C [6]: 18.2%
- viability, T/C [7]: 12.3%
- viability, T/C [8]: 8.91%
- viability, T/C (second compound 0.1 µM, first compound 3.16 µM): 7%
- viability, T/C (second compound 0.1 µM, first compound 10 µM): 7.78%
- viability, T/C [9]: 15.9%
- viability, T/C [10]: 10.2%
- viability, T/C [11]: 7.13%
- viability, T/C [12]: 1.63%
- viability, T/C (second compound 0.316 µM, first compound 3.16 µM): 0.95%
- viability, T/C (second compound 0.316 µM, first compound 10 µM): 0.77%
- viability, T/C [13]: 0.37%
- viability, T/C [14]: 0.22%
- viability, T/C [15]: 0.1%
- viability, T/C [16]: 0.05%
- viability, T/C (second compound 1 µM, first compound 3.16 µM): 0.08%
- viability, T/C (second compound 1 µM, first compound 10 µM): 0.08%
- viability, T/C [17]: 0.12%
- viability, T/C [18]: 0.1%
- viability, T/C [19]: 0.35%
- viability, T/C [20]: 0.06%
- viability, T/C (second compound 3.16 µM, first compound 3.16 µM): 2.39%
- viability, T/C (second compound 3.16 µM, first compound 10 µM): 0.59%
- viability, T/C [21]: 0.05%
- viability, T/C [22]: 0.11%
- viability, T/C [23]: 1.89%
- viability, T/C [24]: 0.11%
- viability, T/C (second compound 10 µM, first compound 3.16 µM): 0.27%
- viability, T/C (second compound 10 µM, first compound 10 µM): 0.33%

Structure (SMILES): CCN1CCN(Cc2ccc(Nc3ncc(F)c(-c4cc(F)c5nc(C)n(C(C)C)c5c4)n3)nc2)CC1 + CN1CCN(c2cc(C(=O)Nc3cc4cc(-c5cnn(C)c5)ccc4cn3)ccn2)CC1
- pIC50 (second compound 0.0316 µM): 8.08
- pIC50 (second compound 0.1 µM): 8.15
- pIC50 (second compound 0.316 µM): > 8.50
- pIC50 (second compound 1 µM): > 8.50
- pIC50 (second compound 3.16 µM): > 8.50
- pIC50 (second compound 10 µM): > 8.50
- viability, T/C [25]: 76.3%
- viability, T/C [26]: 44.8%
- viability, T/C [1]: 29.6%
- viability, T/C [2]: 36.7%
- viability, T/C [3]: 22.4%
- viability, T/C [4]: 26.2%
- viability, T/C [27]: 76.5%
- viability, T/C [28]: 38.7%
- viability, T/C [5]: 20.5%
- viability, T/C [6]: 19.9%
- viability, T/C [7]: 17.4%
- viability, T/C [8]: 12.6%
- viability, T/C [29]: 11.4%
- viability, T/C [30]: 9.45%
- viability, T/C [9]: 8.81%
- viability, T/C [10]: 8.47%
- viability, T/C [11]: 10.7%
- viability, T/C [12]: 12.1%
- viability, T/C [31]: 0.18%
- viability, T/C [32]: 0.21%
- viability, T/C [13]: 1.13%
- viability, T/C [14]: 0.13%
- viability, T/C [15]: 1.24%
- viability, T/C [16]: 0.34%
- viability, T/C [33]: 0.09%
- viability, T/C [34]: 0.13%
- viability, T/C [17]: 0.44%
- viability, T/C [18]: 0.08%
- viability, T/C [19]: 1.18%
- viability, T/C [20]: 0.99%
- viability, T/C [35]: 0.11%
- viability, T/C [36]: 0.29%
- viability, T/C [21]: 0.24%
- viability, T/C [22]: 0.13%
- viability, T/C [23]: 1.1%
- viability, T/C [24]: 1.36%

Structure (SMILES): COc1c(OCCCN2CCOCC2)ccc2c3n(c(=NC(=O)c4cnc(N)nc4)nc12)CCN3 + CN1CCN(c2cc(C(=O)Nc3cc4cc(-c5cnn(C)c5)ccc4cn3)ccn2)CC1
- pIC50 (second compound 0.0316 µM): > 8.50
- pIC50 (second compound 0.1 µM): > 8.50
- pIC50 (second compound 0.316 µM): > 8.50
- pIC50 (second compound 1 µM): > 8.50
- pIC50 (second compound 3.16 µM): > 8.50
- pIC50 (second compound 10 µM): > 8.50
- viability, T/C [25]: 49%
- viability, T/C [26]: 28.7%
- viability, T/C [1]: 11.2%
- viability, T/C [2]: 7.62%
- viability, T/C [3]: 4.48%
- viability, T/C [4]: 3.95%
- viability, T/C [27]: 31.4%
- viability, T/C [28]: 21.4%
- viability, T/C [5]: 7.93%
- viability, T/C [6]: 4.89%
- viability, T/C [7]: 1.94%
- viability, T/C [8]: 0.48%
- viability, T/C [29]: 13.2%
- viability, T/C [30]: 10.1%
- viability, T/C [9]: 2.34%
- viability, T/C [10]: 0.36%
- viability, T/C [11]: 0.18%
- viability, T/C [12]: 1.84%
- viability, T/C [31]: 0.61%
- viability, T/C [32]: 0.25%
- viability, T/C [13]: 0.08%
- viability, T/C [14]: 0.05%
- viability, T/C [15]: 0.06%
- viability, T/C [16]: 0.09%
- viability, T/C [33]: 1.35%
- viability, T/C [34]: 0.2%
- viability, T/C [17]: 0.08%
- viability, T/C [18]: 0.05%
- viability, T/C [19]: 0.09%
- viability, T/C [20]: 0.12%
- viability, T/C [35]: 0.06%
- viability, T/C [36]: 0.11%
- viability, T/C [21]: 0.17%
- viability, T/C [22]: 0.73%
- viability, T/C [23]: 0.21%
- viability, T/C [24]: 0.22%
